Laboratory results reported in patent US8663616B2, “Enzymatic peracid generation for use in oral care products” (E I du Pont de Nemours and Company, priority 2010, dated 2014).

Columns and labels:
[1] = Peracetic acid vs hydrogen peroxide bleaching of coffee/tea stained bovine enamel (whiteness index); settings: for ΔWI: 0 to 61 min; for Whiteness Index 0 min: before exposure
Text: This example describes the use of peracetic acid to achieve a bleaching effect on model stained enamel surfaces. Bovine enamel incisors were obtained from SE Dental (Baton Rouge, La.). Teeth were sectioned and cut into enamel slabs approximately 7 mm on each side using a DREMEL® rotary saw (Robert Bosch Power Tool Corporation; Chicago, Ill.) with a diamond blade. The enamel slabs were cleaned and lightly polished to remove surface debris. The enamel was pretreated with a mixture of coffee and tea for 1-5 days in order to stain to a color similar to human stained teeth.
Each enamel block was hydrated in water for at least 1 hr prior to use. Color measurements for the substrate were obtained prior to exposure to test solutions. Solutions of peracetic acid were prepared from a 32% stock in 500 mM sodium phosphate buffer, pH 7.2. A solution of 2.5% H2O2 was also prepared in the same buffer. Multiple enamel blocks were exposed to each solution for 1 min followed by additional exposures of 5 min, 10 min, 15 min and 30 min. For each treatment, a fresh solution of peracetic acid and hydrogen peroxide was prepared from the stock solutions. After each treatment the enamel blocks were rinsed with water and measured with a Konica-Minolta 2600d spectrophotometer.
(§1) Whiteness index (WI) is defined by the International Commission on Illumination (CIE) and described in ASTM method E313-05 and calculated for D65/10 incident light as: WI=Y+800*(0.3138−x)+1700*(0.3310−y) Where Y, x, and y are the luminance factor and the chromaticity coordinates respectively of the enamel substrate.

[2] = One-step bleaching of stained bovine enamel with perhydrolase system (Example 12)
Text: as §1
(§2) The purpose of this example is to show the tooth bleaching effect of enzymatic generated peracetic acid in a one-step application and compare to the performance achieved with chemically derived peracetic acid. Two methods were developed to use a perhydrolytic enzyme (CE-7 perhydrolase) system to achieve the target level of tooth bleaching. The first method (referred to herein as the “one-step approach”) comprises combining different amounts of at least one CE-7 perhydrolase with triacetin (an example of a suitable ester substrate) and hydrogen peroxide to generate peracetic acid using model stained enamel substrates. Bovine enamel incisors were prepared as indicated in Example 1. Stained bovine enamel blocks were hydrated in water at least 1 hr prior to use to stabilize the color of the substrate. The color for each enamel block was measured after hydration prior to the start of the experiment. Three enamel samples were treated for each solution type. The solutions used were a buffer only control, 2.5% H2O2, 1% peracetic acid, a perhydrolase composition including 10 μM EZ-1 (C277S; SEQ ID NO: 424), 100 mM triacetin and 250 mM H2O2 and a no enzyme control of 100 mM triacetin and 250 mM H2O2. All solutions were prepared in 500 mM sodium phosphate buffer, pH 7.2. The high buffer strength was necessary to maintain the 1% peracetic acid solution at neutral pH. All solutions were freshly prepared for each treatment point. The enzyme-triacetin-H2O2 combination and triacetin-H2O2 combination was mixed immediately before enamel exposure. After each treatment step, each enamel block was rinsed with water and a color measurement was obtained. A total treatment time of 61 min was used with durations of exposure of 1 min, 5 min, 10 min, 15 min and 30 min. The concentration of peracetic acid in solution after the 1 min, 10 min and 30 min treatments was evaluated by colorimetric detection of ABTS oxidation.

[3] = Peracetic acid in treatment solution by ABTS absorbance (Example 12); type: biochemical; settings: 1:100 dilution into ABTS reagent
Text: as §2
Determination of the peracetic acid (PAA) concentration in the reaction mixtures by a colorimetric method was performed according to the method described by Dinu et. al. (supra). A reagent solution of 1 mM 2,2′-azino-bis(3-ethylbenzothiazoline)-6-sulfonate (ABTS), 50 μM potassium iodide in 125 mM potassium citrate buffer at pH 5.0 was prepared. […] The solution was analyzed for absorbance at 405 nm using a Microplate reader. A comparison of relative amounts of peracetic acid in solution was determined by comparing absorbance values directly.

[4] = Bleaching of coffee-tea stained bovine enamel with EZ-1 and various ester substrates (Example 15)
Description: The optimal conditions used for the generation of peracetic acid with each substrate were derived from the studies in Example 14 and are listed below as follows:
Bovine enamel incisors were prepared as indicated in Example 1. The stained enamel blocks were placed in a 24 well plate with the dentin side facing down and hydrated overnight in phosphate buffer, pH 7.2. Prior to treatment, a color measurement of each tooth was performed using a Konica-Minolta 2600d spectrophotometer and whiteness index was calculated as specified in Example 1.
Each enzyme solution was prepared in a 1.5-mL microfuge tube (Eppendorf, #2243102-1) and 1 mL of the solution was immediately transferred to the 24 well plate containing the pre-hydrated teeth. The control samples consisted of 100 mM phosphate buffer, pH 7.2 and 9% H2O2 in 100 mM citrate/phosphate buffer, pH 5.3. The teeth were incubated at room temperature for 30 minutes, removed, rinsed with 100 mM phosphate, pH 7.2 and a color measurement was taken. The teeth were placed back into the 24 well plate at which time fresh enzyme solutions were prepared and added to each well. This process was repeated for a total of 3 whitening treatments; 30 min per treatment (Table 22).

- Whiteness Index 0 min ([2]; before treatment, 2.5% H2O2, 100 mM triacetin/250 mM H2O2, 1% PAA, 10 μM EZ-1/100 mM triacetin/250 mM H2O2, pH 7.2): −149.3
- ΔWI ([2]; one-step, 0 to 61 min): 46.2
- Whiteness Index 1 min ([2]; one-step, cumulative treatment 1 min): −146.3
- Whiteness Index 6 min ([2]; one-step, cumulative treatment 6 min): −142.5
- Whiteness Index 16 min ([2]; one-step, cumulative treatment 16 min): −134.7
- Whiteness Index 31 min ([2]; one-step, cumulative treatment 31 min): −125.2
- Whiteness Index 61 min ([2]; one-step, cumulative treatment 61 min): −103.1
SMILES: OO [Enzyme H2O2, hydrogen peroxide]
- ΔWI ([1]; Table 1, 2.5% H2O2 or 0.5% PAA): 42.6
- Whiteness Index 1 min ([1]; Table 1, 2.5% H2O2 or 0.5% PAA, cumulative exposure 1 min): −127.2
- Whiteness Index 6 min ([1]; Table 1, 2.5% H2O2 or 0.5% PAA, cumulative exposure 6 min): −124.5
- Whiteness Index 16 min ([1]; Table 1, 2.5% H2O2 or 0.5% PAA, cumulative exposure 16 min): −118.4
- Whiteness Index 31 min ([1]; Table 1, 2.5% H2O2 or 0.5% PAA, cumulative exposure 31 min): −103.6
- Whiteness Index 61 min ([1]; Table 1, 2.5% H2O2 or 0.5% PAA, cumulative exposure 61 min): −84.9
- Whiteness Index 0 min ([1]; Table 1, 2.5% H2O2 or 0.5% PAA, 500 mM sodium phosphate pH 7.2): −127.5
- Whiteness Index 1 min ([1]; Table 2, 2.5% H2O2): −92.6
- Whiteness Index 6 min ([1]; Table 2, 2.5% H2O2): −86.4
- Whiteness Index 16 min ([1]; Table 2, 2.5% H2O2): −79.5
- Whiteness Index 31 min ([1]; Table 2, 2.5% H2O2): −68.3
- Whiteness Index 61 min ([1]; Table 2, 2.5% H2O2): −56.4
- ΔWI ([1]; Table 2, 2.5% H2O2): 37.4
- Whiteness Index 0 min ([1]; Table 2, 2.5% H2O2): −93.8
- Absorbance 405 nm, 1 min ([3]; peracetic acid at end of 1 min treatment): 0.056
- Absorbance 405 nm, 10 min ([3]; peracetic acid at end of 10 min treatment): 0.060
- Absorbance 405 nm, 30 min ([3]; peracetic acid at end of 30 min treatment): 0.054
- Whiteness Index Treatment 1 ([4]; after 1 x 30 min treatment): −129.6
- Whiteness Index Treatment 2 ([4]; after 2 x 30 min treatments): −117.6
- Whiteness Index Treatment 3 ([4]; after 3 x 30 min treatments): −115.2
- Whiteness Index Treatment 0 ([4]; before treatment, 40 ppm EZ-1, 100 mM substrate, H2O2 100 mM (TA), 360 mM (PGDA, SOC), 60 mM (GPA), pH 7.2, control 9% H2O2 pH 5.3 without enzyme): −167.6
- ΔWI ([4]; treatment 0 to treatment 3): 52.4
